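Five concentrations, 48 hours, 96-well plates. GI50: concentration for 50% inhibition of growth. TGI marks complete inhibition of growth.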
Columns and labels:
Experiment in all cases: NCI-60 cell line screen, 48 h
[1] = system: UO-31 renal
[2] = system: OVCAR-8 ovarian
[3] = system: SN12C renal
[4] = system: CAKI-1 renal
[5] = system: SK-MEL-28 melanoma
[6] = system: COLO 205 colon
[7] = system: M14 melanoma
[8] = system: KM12 colon
[9] = system: OVCAR-3 ovarian
[10] = system: SK-MEL-5 melanoma

| Compound | TGI [1] [µM] | TGI [2] [µM] | TGI [3] [µM] | TGI [4] [µM] | TGI [5] [µM] | TGI [6] [µM] | TGI [7] [µM] | TGI [8] [µM] | TGI [9] [µM] | TGI [10] [µM] | GI50 [1] [µM] | GI50 [2] [µM] | GI50 [3] [µM] | GI50 [4] [µM] | GI50 [5] [µM] | GI50 [6] [µM] | GI50 [7] [µM] | GI50 [8] [µM] | GI50 [9] [µM] | GI50 [10] [µM] |
| --- | --- | --- | --- | --- | --- | --- | --- | --- | --- | --- | --- | --- | --- | --- | --- | --- | --- | --- | --- | --- |
| COc1cccc(NC(=O)CC(=O)n2nc(C)c(N=Nc3ccccc3)c2C)c1 | > 100 | > 100 | > 100 | > 100 | > 100 | > 100 | > 100 | > 100 | > 100 | > 100 | – | – | – | – | – | – | – | – | – | – |
| CN(C)c1ccc(-c2cc(-c3ccc(Nc4nc(Nc5ccc(Cl)cc5)nc(Nc5ccc(Cl)cc5)n4)cc3)no2)cc1 | 17.7 | 39 | 61 | > 100 | 46.9 | 16 | 13.3 | 25.3 | 8.96 | 9.07 | 2.69 | 5.91 | 9.63 | 2.8 | 6.49 | 2.89 | 2.62 | 4.11 | 3.42 | 2.07 |
| C[C@@H](CS(C)(=O)=O)Nc1ncc2cc(Oc3ccc(F)cc3F)c(=O)n(C)c2n1 | > 25 | > 25 | > 25 | > 25 | > 25 | > 25 | > 25 | > 25 | > 25 | > 25 | > 25 | > 25 | > 25 | > 25 | > 25 | > 25 | > 25 | > 25 | > 25 | > 25 |
| Cc1nc2c(nc1C)C(=O)c1ccccc1C2=O | 36.2 | 42.9 | 6.4 | 61.9 | 4.76 | 5.57 | 2.26 | 35.3 | 13.3 | 0.518 | – | – | – | – | – | – | – | – | – | – |
| COc1cc2nc(-c3ccc(C(F)(F)F)cc3)cc(OCCCN3CCC(O)CC3)c2cc1OC | 14.6 | 22.2 | 19.7 | 13.1 | 11.5 | 12.1 | 2.26 | 24 | 22.2 | 4.72 | 2.71 | 1.66 | 1.44 | 0.376 | 2.38 | 0.456 | 0.535 | 6.87 | 6.1 | 1.43 |
| COc1cc(C(=O)/C=C/c2sc(Cl)nc2Cl)cc(OC)c1OC | 2.75 | 3.96 | 3.2 | 2.99 | 3.27 | 3.9 | 3.57 | 3.84 | 3.21 | 3.96 | 1.44 | 1.93 | 1.74 | 1.61 | 1.78 | 1.72 | 1.85 | 1.92 | 1.77 | 1.95 |
| NC(CSC(c1ccccc1)(c1ccccc1)c1ccc2c(c1)OCO2)C(=O)O (stereo not drawn) | > 100 | > 100 | > 100 | > 100 | 98.5 | 1.15 | 0.648 | > 100 | 16.4 | 5.01 | 9.6 | 0.595 | 0.633 | 5.14 | 0.799 | 0.325 | 0.239 | 0.605 | 0.512 | 0.365 |
| COc1ccc(NC(=O)c2cc(OC)cc(OC)c2)cc1 | > 100 | > 100 | > 100 | > 100 | > 100 | > 42.8 | > 100 | > 100 | > 48.6 | > 100 | – | – | – | – | – | – | – | – | – | – |
| O[C@H]1[C@H]2c3cc4c(cc3CN3CCC(=C[C@@H]1O)[C@H]23)OCO4 | 4.77 | 7.55 | 9.5 | 4.34 | 22.6 | 2.79 | 8.2 | 22.4 | 11.9 | 6.91 | – | – | – | – | – | – | – | – | – | – |
| CC1=C(C#N)C23C(=O)c4ccccc4C(O)=C2C(=O)C=CC3(O)N1Cc1ccccc1 (stereo not drawn) | > 100 | > 100 | > 100 | > 100 | > 100 | 34.4 | > 100 | > 100 | > 100 | 61.5 | 18 | 38.5 | 52.5 | 43.2 | 57.1 | 16.6 | 32.8 | 42.4 | 32 | 18 |
| CN(CC(=O)O)S(=O)(=O)c1ccc2ccccc2c1 | > 100 | > 100 | > 100 | > 100 | > 100 | > 100 | > 100 | > 100 | > 100 | > 100 | – | – | – | – | – | – | – | – | – | – |
| O=C1c2cccnc2-c2nc(-c3ccccc3[N+](=O)[O-])cc3c2c1nc1ccccc13 | 32.5 | 44.2 | 37.9 | 43.3 | > 63.5 | > 62.4 | 10.7 | > 55 | > 32.4 | 8.23 | 12.5 | 13.1 | 15.6 | 18 | 27.6 | 24.4 | 2.99 | 14.1 | 0.432 | 2.6 |
| Fc1ccc(Nc2ncnc3ccc(-c4cnc5[nH]ccc5c4)cc23)cc1Cl | 2.38 | 14.9 | 4.88 | 19.5 | > 36.2 | 46.3 | > 100 | > 100 | 3.73 | 40.3 | 0.6 | 2.94 | 1.73 | 0.502 | 4.13 | 3.58 | 4.35 | 4.71 | 1.51 | 6.88 |
| CCOc1ccccc1-n1c(CN2CCN(C(=O)COc3ccc(CNCCCCCCN4C5CCCC4CC(OC(=O)Nc4cc(C)ccc4OC)C5)cc3)CC2)nc2ccccc2c1=O (stereo not drawn) | 8.15 | 3.75 | 3.24 | 3.06 | 3.25 | 3.69 | 3.01 | 3.27 | 3.49 | 2.92 | 4.07 | 1.83 | 1.76 | 1.63 | 1.81 | 1.78 | 1.43 | 1.66 | 1.78 | 1.52 |
| CC1(C)COC(c2ccc(C(F)(F)F)cc2C(O)c2ccc3ccccc3c2)=N1 (stereo not drawn) | > 100 | > 100 | > 100 | > 100 | > 100 | > 100 | > 100 | > 100 | > 100 | > 100 | > 100 | > 100 | > 100 | > 10 | > 100 | > 100 | > 100 | > 100 | > 100 | > 100 |
| CCOC(=O)c1ncn2c1[nH]c(=S)c1ccccc12 | > 100 | > 100 | > 100 | > 100 | > 100 | > 100 | > 100 | > 100 | > 100 | > 100 | – | – | – | – | – | – | – | – | – | – |
| COC(=O)Nc1nc2ccc(S(=O)c3ccccc3)cc2[nH]1 (stereo not drawn) | > 100 | > 100 | > 100 | > 100 | > 100 | 7.78 | > 100 | > 100 | > 100 | > 100 | 8 | 14.8 | 6.98 | 4.99 | 3.78 | 2.51 | 3.11 | 4.48 | 7.39 | 2.83 |
| CNC(=O)c1ccccc1Nc1nc(Nc2ccc(N3CCOCC3)cc2OC)ncc1Cl | 4.44 | > 100 | > 100 | 1.58 | > 37.1 | 0.59 | > 62.8 | 8.52 | > 53.3 | > 37.8 | 0.4 | 2.29 | 1.77 | 0.165 | 1.35 | 0.103 | 0.541 | 0.298 | 1.73 | 1.68 |
| COc1ccc(/C=C\c2cc(OC)c3c(c2)OCO3)c(O)c1O | 12 | 32.5 | 41.4 | 20.5 | 24.1 | 45.1 | 11.7 | 21.4 | 47.4 | 6.32 | – | – | – | – | – | – | – | – | – | – |
| COc1ccccc1NC(=O)CC(=O)n1nc(C)c(N=Nc2ccccc2C(=O)O)c1C | > 100 | > 100 | > 100 | > 100 | > 100 | > 100 | > 100 | > 100 | > 100 | > 100 | – | – | – | – | – | – | – | – | – | – |
| COc1ccc(-c2cc(-c3ccc(Nc4nc(Nc5ccccc5)nc(Nc5ccc(Cl)cc5)n4)cc3)nc(N)c2C#N)cc1 | 1.49 | > 50 | > 50 | 1.49 | 1.76 | 2.15 | 1.81 | 2.14 | 1.52 | 3.03 | 0.72 | 1.81 | 2.03 | 0.705 | 0.857 | 1 | 0.887 | 0.961 | 0.761 | 1.18 |
| CSc1ccccc1C#C/C=C\C#Cc1ccccc1N1CCCC1=O | > 50 | > 50 | > 50 | > 50 | > 50 | > 12.6 | > 50 | > 17.6 | > 14 | > 18.3 | – | > 13.1 | > 26.2 | > 10.3 | – | – | > 12.3 | – | – | – |
| O=C(CN1CCN(c2cc3c(cc2F)c(=O)c(C(=O)N/N=C/c2ccccc2O)cn3C2CC2)CC1)N/N=C\c1ccccc1O | > 100 | > 100 | > 100 | > 100 | > 100 | > 100 | 5.02 | > 100 | > 100 | 2.95 | 0.359 | 0.417 | 0.694 | 1.1 | 0.657 | 0.371 | 0.384 | 0.462 | 0.269 | 0.876 |
| Cc1cc(=O)[nH]c2cc3oc4ccccc4c3cc12 | > 100 | > 100 | > 100 | > 100 | > 100 | > 100 | > 100 | > 100 | > 89.4 | > 100 | – | – | – | – | – | – | – | – | – | – |
| Cc1cc(=O)n2[nH]c(-c3ccc(C(C)(C)C)cc3)cc2n1 | > 100 | > 100 | > 100 | 32.7 | > 100 | > 100 | > 100 | 53.9 | 43.5 | 12.1 | 3.17 | 11.2 | 12.3 | 2.6 | 20.6 | 11.3 | 12.7 | 7.04 | 3.24 | 1.82 |
| O=C(NCCNc1nccc(-c2c(-c3cccc(O)c3)nc3sccn23)n1)c1ccccc1O | 19.8 | 25.4 | 52 | 21.8 | 33.3 | 23.4 | 13.6 | 15.7 | 47.8 | 5.21 | 5 | 3.14 | 3.56 | 3.23 | 0.43 | 5.32 | 0.342 | 4.41 | 5.57 | 1.47 |
| CCCCCCCC(=O)SCC/C=C/[C@@H]1CC(=O)NCc2cccc(n2)C2=N[C@@](C)(CS2)C(=O)N[C@@H](C(C)C)C(=O)N1 | > 33.3 | > 33.3 | > 33.3 | > 33.3 | > 33.3 | 1.62 | > 33.3 | > 33.3 | 9.27 | 8.35 | 4.54 | 0.421 | 3.25 | 16.9 | 1.02 | 0.468 | 1.32 | 1.21 | 0.402 | 0.924 |
| COc1ccc2c(c1)C(=O)/C(=C/c1ccc(OCC(=O)Nc3nccs3)cc1)O2 | 0.374 | > 60.5 | 18.9 | – | 26.3 | 5.09 | 13.5 | 18.8 | 0.398 | 16.3 | 0.215 | 17.2 | 2.51 | 0.392 | 12.7 | 0.979 | 3.03 | 0.431 | 0.204 | 2.93 |

— PubChem BioAssay (NCI)
